Holding throughout (experiment): KiNativ chemical proteomics profiling in HeLa and PC3 cell lysates
Assay type in all cases: binding

Experiment [1] addresses T1, selected panels of kinases in HeLa and PC3 cell lysates (Homo sapiens, UniProt Q8IVH8).
T1 construct: endogenous in cells; host or cells: HeLa and PC3 cell lysates
As to conditions: 10 uM; proteome PC3; peptide […]kVIK; labeling site Lys1.

Experiment [2] addresses T2, selected panels of kinases in HeLa and PC3 cell lysates (Homo sapiens, UniProt Q86SG6).
T2 construct: endogenous in cells; host or cells: HeLa and PC3 cell lysates
Particulars: 10 uM; proteome PC3; peptide DLkTQNILLDK; labeling site Lys2.

The target of experiment [3] is T3, selected panels of kinases in HeLa and PC3 cell lysates (Homo sapiens, UniProt Q16512).
T3 construct: endogenous in cells; host or cells: HeLa and PC3 cell lysates
Particulars: 10 uM; PKN1; peptide GHFGk[…]; proteome HEL; labeling site Lys1.

The target of experiment [4] is T4, selected panels of kinases in HeLa and PC3 cell lysates (Homo sapiens, UniProt P00533).
T4 construct: endogenous in cells; host or cells: HeLa and PC3 cell lysates
Particulars: 10 uM, proteome PC3.

For experiment [5], the target named is T5, selected panels of kinases in HeLa and PC3 cell lysates (Homo sapiens, UniProt P49760).
T5 construct: endogenous in cells; host or cells: HeLa and PC3 cell lysates
As to conditions: 10 uM; proteome PC3; peptide LTHTDLk[…]; labeling site Lys2.

Experiment [6] addresses T6, selected panels of kinases in HeLa and PC3 cell lysates (Homo sapiens, UniProt P10398).
T6 construct: endogenous in cells; host or cells: HeLa and PC3 cell lysates
As to conditions: 10 uM; proteome HEL; peptide DLk[…]; labeling site Lys2.

Experiment [7] concerns the target T7, selected panels of kinases in HeLa and PC3 cell lysates (Homo sapiens, UniProt Q9UKI8).
T7 construct: endogenous in cells; host or cells: HeLa and PC3 cell lysates
T7 sequence (Q9UKI8 1-766): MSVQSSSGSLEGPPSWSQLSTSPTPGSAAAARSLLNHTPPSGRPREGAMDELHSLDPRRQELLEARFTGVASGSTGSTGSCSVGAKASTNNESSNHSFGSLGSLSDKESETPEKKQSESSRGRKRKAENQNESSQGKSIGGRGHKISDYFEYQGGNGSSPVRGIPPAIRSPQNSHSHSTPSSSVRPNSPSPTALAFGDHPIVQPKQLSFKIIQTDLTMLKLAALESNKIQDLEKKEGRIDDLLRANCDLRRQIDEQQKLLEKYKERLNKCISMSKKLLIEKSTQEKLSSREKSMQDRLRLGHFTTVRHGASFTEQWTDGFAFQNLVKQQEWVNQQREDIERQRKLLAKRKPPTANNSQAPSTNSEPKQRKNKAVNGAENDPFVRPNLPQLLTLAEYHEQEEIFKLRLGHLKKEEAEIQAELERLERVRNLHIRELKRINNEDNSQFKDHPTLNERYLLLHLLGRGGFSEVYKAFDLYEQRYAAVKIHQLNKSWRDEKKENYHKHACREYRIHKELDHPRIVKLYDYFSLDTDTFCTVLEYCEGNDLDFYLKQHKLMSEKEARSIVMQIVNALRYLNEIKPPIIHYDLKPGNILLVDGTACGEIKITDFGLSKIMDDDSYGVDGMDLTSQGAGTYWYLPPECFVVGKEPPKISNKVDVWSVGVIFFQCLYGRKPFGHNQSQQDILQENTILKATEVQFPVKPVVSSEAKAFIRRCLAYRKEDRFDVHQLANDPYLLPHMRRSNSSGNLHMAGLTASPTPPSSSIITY
Particulars: 10 uM, TLK1.

Experiment [8] addresses T8, selected panels of kinases in HeLa and PC3 cell lysates (Homo sapiens, UniProt O15111).
T8 construct: endogenous in cells; host or cells: HeLa and PC3 cell lysates
Particulars: 10 uM; proteome HEL; peptide DLk[…]; labeling site Lys2.

The target of experiment [9] is T9, selected panels of kinases in HeLa and PC3 cell lysates (Homo sapiens, UniProt Q53H12).
T9 construct: endogenous in cells; host or cells: HeLa and PC3 cell lysates
As to conditions: 10 uM; proteome PC3; peptide […]kGK; labeling site ATP.

Experiment [10] has as its target T10, selected panels of kinases in HeLa and PC3 cell lysates (Homo sapiens, UniProt Q86UE8).
T10 construct: endogenous in cells; host or cells: HeLa and PC3 cell lysates
As to conditions: 10 uM; TLK2; peptide YVAVkIHQLNK; proteome PC3; labeling site Lys1.

The target of experiment [11] is T11, selected panels of kinases in HeLa and PC3 cell lysates (Homo sapiens, UniProt Q9BZL6).
T11 construct: endogenous in cells; host or cells: HeLa and PC3 cell lysates
T11 sequence (Q9BZL6 1-878): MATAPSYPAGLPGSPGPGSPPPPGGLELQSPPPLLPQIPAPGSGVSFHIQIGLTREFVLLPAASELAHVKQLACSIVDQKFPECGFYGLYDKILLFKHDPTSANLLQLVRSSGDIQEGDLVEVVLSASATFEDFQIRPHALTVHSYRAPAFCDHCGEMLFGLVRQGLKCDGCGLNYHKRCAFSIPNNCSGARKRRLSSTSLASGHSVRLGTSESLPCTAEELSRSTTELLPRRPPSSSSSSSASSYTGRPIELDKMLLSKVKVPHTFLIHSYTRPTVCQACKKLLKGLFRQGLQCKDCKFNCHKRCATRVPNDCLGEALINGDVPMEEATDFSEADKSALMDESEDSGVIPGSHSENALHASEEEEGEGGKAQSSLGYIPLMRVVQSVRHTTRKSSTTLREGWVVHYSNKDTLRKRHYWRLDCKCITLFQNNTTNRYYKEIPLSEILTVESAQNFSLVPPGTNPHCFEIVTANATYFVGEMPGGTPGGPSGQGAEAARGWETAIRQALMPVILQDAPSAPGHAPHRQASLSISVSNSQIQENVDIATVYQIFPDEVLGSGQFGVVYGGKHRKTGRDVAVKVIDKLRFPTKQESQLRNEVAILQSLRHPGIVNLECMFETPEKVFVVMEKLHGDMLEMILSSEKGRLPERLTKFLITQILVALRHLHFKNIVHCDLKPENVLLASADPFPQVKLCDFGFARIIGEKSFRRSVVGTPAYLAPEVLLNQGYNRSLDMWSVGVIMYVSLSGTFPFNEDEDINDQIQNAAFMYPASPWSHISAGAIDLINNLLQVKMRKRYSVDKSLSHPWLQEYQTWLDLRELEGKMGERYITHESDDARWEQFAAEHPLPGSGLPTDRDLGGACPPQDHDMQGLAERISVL
Particulars: 10 uM, PKD2, peptide DVAVkVIDK, labeling site Lys1.

Experiment [12] deals with T12, selected panels of kinases in HeLa and PC3 cell lysates (Homo sapiens, UniProt Q9Y6R4).
T12 construct: endogenous in cells; host or cells: HeLa and PC3 cell lysates
As to conditions: 10 uM, peptide DIk[…], labeling site Lys2.

Where [13] appears, read: peptide IPVAIkELR, labeling site Lys1.
Where [14] appears, read: peptide ITDFGLAkLLGAEEK, labeling site Activation Loop.
[15] abbreviates: peptide […]kVPIK, labeling site Activation Loop.
[16] abbreviates: peptide YAAVkIHQLNK, proteome HEL, labeling site Lys1.
Where [17] appears, read: peptide YAAVkIHQLNK, proteome PC3, labeling site Lys1.
[18] abbreviates: peptide […]k[…], proteome HEL, labeling site Lys2.
Setting [19] is: peptide […]k[…], proteome PC3, labeling site Lys2.

T12 sequence (Q9Y6R4 whole entry): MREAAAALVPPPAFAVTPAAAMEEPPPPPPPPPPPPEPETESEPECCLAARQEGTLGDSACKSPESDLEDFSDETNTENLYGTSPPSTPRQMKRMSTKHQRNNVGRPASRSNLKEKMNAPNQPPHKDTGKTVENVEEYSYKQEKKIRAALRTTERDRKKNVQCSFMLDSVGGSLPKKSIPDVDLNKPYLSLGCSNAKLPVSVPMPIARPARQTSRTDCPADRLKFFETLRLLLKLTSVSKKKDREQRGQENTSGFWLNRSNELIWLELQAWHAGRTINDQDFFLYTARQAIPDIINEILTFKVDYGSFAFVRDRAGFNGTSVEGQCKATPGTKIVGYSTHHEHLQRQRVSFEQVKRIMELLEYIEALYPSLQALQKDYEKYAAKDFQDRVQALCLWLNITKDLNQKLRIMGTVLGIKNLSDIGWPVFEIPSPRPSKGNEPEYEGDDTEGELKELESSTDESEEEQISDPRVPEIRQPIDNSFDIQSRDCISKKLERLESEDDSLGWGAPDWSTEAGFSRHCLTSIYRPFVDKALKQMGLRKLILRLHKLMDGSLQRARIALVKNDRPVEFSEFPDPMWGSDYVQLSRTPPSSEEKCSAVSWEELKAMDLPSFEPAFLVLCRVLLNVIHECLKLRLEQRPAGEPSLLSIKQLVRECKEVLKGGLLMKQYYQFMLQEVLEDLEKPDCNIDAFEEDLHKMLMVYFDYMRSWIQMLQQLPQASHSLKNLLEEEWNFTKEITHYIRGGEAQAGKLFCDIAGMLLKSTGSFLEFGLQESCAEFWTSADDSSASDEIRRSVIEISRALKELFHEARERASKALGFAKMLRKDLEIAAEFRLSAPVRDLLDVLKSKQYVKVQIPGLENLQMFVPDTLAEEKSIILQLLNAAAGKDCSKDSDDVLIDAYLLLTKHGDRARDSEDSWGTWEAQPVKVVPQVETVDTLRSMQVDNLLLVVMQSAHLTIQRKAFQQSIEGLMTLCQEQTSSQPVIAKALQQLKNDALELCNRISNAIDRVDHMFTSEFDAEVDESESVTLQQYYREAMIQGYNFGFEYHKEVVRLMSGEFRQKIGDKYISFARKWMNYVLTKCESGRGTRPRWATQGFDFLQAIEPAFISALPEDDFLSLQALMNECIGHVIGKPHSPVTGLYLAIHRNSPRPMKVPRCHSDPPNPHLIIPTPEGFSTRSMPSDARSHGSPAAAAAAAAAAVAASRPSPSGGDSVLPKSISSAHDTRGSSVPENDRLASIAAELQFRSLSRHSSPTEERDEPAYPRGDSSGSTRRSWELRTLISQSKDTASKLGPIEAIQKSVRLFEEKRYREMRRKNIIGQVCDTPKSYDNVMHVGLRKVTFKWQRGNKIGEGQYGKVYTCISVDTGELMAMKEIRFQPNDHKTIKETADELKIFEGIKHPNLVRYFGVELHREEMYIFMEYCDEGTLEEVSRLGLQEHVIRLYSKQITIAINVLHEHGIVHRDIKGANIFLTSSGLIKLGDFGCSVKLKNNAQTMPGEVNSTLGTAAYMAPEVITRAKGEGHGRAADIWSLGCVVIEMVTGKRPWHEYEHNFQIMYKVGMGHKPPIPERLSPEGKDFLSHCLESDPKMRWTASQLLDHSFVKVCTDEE
T4 sequence (P00533 25-1210): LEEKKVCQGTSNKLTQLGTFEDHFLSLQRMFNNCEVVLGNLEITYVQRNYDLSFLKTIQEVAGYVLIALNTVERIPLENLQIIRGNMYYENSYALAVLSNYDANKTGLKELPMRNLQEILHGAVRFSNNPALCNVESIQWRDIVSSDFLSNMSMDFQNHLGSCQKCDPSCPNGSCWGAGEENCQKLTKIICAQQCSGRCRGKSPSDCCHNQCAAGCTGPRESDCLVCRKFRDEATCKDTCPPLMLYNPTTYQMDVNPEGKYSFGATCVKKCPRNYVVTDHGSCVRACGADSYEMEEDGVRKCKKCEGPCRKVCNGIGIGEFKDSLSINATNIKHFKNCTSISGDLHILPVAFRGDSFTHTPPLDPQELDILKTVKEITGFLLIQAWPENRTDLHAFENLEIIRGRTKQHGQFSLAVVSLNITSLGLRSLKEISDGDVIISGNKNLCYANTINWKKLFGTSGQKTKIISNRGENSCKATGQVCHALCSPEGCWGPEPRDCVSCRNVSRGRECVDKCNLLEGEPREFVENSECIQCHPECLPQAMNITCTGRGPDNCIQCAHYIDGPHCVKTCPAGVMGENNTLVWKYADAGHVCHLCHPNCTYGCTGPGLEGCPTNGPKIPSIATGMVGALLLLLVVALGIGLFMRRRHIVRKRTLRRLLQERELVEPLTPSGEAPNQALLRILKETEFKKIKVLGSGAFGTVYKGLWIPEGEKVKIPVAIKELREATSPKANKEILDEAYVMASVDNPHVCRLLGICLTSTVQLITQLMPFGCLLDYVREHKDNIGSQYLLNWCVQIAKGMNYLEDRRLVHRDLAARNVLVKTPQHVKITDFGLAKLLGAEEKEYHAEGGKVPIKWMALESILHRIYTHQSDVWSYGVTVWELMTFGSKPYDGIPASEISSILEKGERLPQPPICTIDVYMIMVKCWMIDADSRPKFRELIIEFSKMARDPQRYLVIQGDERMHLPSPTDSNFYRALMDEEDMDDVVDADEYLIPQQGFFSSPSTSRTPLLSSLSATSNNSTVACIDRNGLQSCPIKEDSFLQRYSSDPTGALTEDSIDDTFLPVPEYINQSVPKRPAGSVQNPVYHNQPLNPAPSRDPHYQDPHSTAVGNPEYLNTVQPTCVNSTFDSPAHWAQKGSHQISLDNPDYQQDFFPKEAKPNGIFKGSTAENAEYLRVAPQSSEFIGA
T9 sequence (Q53H12 whole entry): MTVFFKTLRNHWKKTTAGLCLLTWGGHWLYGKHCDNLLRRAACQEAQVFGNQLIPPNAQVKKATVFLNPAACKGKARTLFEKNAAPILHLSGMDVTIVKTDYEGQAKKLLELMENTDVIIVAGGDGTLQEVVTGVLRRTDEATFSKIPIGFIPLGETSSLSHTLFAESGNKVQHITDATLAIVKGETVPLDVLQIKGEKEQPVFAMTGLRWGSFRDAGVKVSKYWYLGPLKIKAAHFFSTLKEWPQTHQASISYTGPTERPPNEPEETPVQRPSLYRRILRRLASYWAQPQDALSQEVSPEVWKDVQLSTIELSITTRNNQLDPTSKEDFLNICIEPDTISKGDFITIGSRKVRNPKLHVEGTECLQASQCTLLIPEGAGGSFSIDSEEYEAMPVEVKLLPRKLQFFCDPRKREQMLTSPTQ
T6 sequence (P10398 whole entry): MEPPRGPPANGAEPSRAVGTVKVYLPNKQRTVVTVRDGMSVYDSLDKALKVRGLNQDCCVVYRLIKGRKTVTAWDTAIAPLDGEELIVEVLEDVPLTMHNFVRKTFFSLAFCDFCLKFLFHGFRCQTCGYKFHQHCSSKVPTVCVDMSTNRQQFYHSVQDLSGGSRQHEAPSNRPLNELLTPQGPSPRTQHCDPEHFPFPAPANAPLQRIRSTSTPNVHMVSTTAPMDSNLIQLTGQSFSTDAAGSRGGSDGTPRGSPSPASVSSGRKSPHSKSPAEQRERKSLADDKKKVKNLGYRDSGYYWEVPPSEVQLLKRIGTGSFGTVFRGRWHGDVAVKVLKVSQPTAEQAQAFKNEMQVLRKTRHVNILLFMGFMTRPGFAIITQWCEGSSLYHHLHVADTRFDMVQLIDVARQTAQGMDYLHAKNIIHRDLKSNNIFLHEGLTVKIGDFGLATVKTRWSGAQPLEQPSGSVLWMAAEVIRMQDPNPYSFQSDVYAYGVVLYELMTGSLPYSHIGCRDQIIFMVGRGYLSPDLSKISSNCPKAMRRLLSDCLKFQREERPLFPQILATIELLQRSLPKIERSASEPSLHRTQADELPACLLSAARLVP
T3 sequence (Q16512 whole entry): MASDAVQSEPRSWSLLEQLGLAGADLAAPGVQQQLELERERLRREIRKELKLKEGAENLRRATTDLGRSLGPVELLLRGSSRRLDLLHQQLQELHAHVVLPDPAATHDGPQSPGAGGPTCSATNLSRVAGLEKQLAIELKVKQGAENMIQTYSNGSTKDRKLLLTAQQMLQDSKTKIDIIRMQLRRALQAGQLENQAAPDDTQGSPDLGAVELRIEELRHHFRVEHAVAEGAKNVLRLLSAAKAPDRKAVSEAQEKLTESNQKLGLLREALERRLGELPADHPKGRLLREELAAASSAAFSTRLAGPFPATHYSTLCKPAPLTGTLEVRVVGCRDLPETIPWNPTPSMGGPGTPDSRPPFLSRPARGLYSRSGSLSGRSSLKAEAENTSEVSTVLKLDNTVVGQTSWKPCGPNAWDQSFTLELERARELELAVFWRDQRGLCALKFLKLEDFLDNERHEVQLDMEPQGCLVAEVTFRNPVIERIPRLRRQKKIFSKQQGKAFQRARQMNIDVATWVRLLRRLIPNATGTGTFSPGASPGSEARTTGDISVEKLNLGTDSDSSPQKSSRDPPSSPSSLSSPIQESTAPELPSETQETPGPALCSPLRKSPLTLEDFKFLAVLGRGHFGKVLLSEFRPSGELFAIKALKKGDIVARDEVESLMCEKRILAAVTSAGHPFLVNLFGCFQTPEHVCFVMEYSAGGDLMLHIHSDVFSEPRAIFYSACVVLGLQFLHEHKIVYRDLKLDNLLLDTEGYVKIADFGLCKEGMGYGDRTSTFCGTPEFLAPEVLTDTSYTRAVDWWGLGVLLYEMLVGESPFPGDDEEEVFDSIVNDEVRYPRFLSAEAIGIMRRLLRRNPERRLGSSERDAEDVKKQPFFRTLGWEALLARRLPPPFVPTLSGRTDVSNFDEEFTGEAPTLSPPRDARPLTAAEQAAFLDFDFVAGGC

Regarding `CCOc1cc(C(=O)N2CCC(N3CCN(C)CC3)CC2)ccc1Nc1ncc2c(n1)N(C1CCCC1)c1ccccc1C(=O)N2C` [Compound 26], the “% Inhibiton, KHS2” value in experiment [1] was -3.3%. Further, the “% Inhibiton, NEK8” value in experiment [2] was -8.1%. Also, the “% Inhibition PKN1” value in [3] stood at 15.3%. In addition, the “% Inhibiton, EGFR” value in experiment [4] (setting [13]) is on record as -3.3%; in experiment [4] (setting [14]), -5.7%; in experiment [4] (setting [15]) it was -8.1%. Also, in [5], the “% Inhibiton, CLK2” value was found to be 9.1%. Further, in experiment [6], the “% Inhibiton, ARAF” value came to 2.9%. Further, the “% Inhibition TLK1” value in experiment [7] (setting [16]) worked out at 35.7%; in [7] (setting [17]), 6.2%; in experiment [7] (setting [18]), 3.6%; in experiment [7] (setting [19]), 6.8%. In addition, the “% Inhibiton, IKKa” value in [8] was -5.9%. Moreover, the “% Inhibiton, AGK” value in experiment [9] stood at 15.3%. The “% Inhibition TLK2” value in experiment [10] is -11.7%. The “% Inhibition PKD2” value is -14.3% in [11] (proteome HEL) and 26.9% in experiment [11] (proteome PC3). The entries for the “% Inhibiton, MAP3K4” value in [12] (proteome HEL) and in [12] (proteome PC3) were -12% and -1.2%, respectively.
Turning to `COc1cc(C(=O)N2CCC(N3CCN(C)CC3)CC2)ccc1Nc1ncc2c(n1)N(C1CCCC1)c1ccccc1C(=O)N2C` [Compound 25, 11-cyclopentyl-2-((2-methoxy-4-(4-(4-methylpiperazin-1-yl)piperidine-1-carbonyl)phenyl)amino)-5-methyl-5H-benzo[e]pyrimido[5,4-b][1,4]diazepin-6(11H)-one], the “% Inhibiton, KHS2” value in [1] is listed as -4.9%. Moreover, the “% Inhibiton, NEK8” value in experiment [2] was -18.9%. Also, the “% Inhibition PKN1” value in experiment [3] was -2.7%. For the same compound, the “% Inhibiton, EGFR” value was -6.4% in [4] (setting [13]), -31.1% in [4] (setting [14]) and -10.1% in experiment [4] (setting [15]). In [5], the “% Inhibiton, CLK2” value is -17.0%. The “% Inhibiton, ARAF” value in [6] is given as -0.657%. Moreover, the “% Inhibition TLK1” value in experiment [7] (setting [16]) is listed as -21.7%; in [7] (setting [17]) it was -9.7%; in experiment [7] (setting [18]) it was -8.4%; in experiment [7] (setting [19]) it was -12.2%. In addition, the “% Inhibiton, IKKa” value in experiment [8] was 5.3%. Also, the “% Inhibiton, AGK” value in [9] was 1.8%. Besides, the “% Inhibition TLK2” value in experiment [10] is -3.6%. The “% Inhibition PKD2” value in [11] (proteome HEL) is listed as -7.1%; in experiment [11] (proteome PC3) it was -2.6%. The “% Inhibiton, MAP3K4” value is listed as 7.2% in experiment [12] (proteome HEL) and 2.6% in experiment [12] (proteome PC3).

Values taken from paper PMC3914206.
